Laboratory results reported in patent publication US10336792B2, “Antimicrobial peptide dendrimers” (priority 2014, dated 2019).
In brackets after ≈: the same amount, converted by molar mass. Residues, ends and D or L forms follow the SMILES beside them.

Key:
[1] = test system: Escherichia coli (strain DH5α); assay type: cell-based; settings: LB medium
In short: (§1)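 Broth microdilution MIC in LB; overnight cultures diluted to OD600 0.001 and mixed 1:1 with ⅔-serially diluted samples (stock 1 mg mL^−1 in H2O), 37° C for 18-24 h. MTT (0.1%) added; MIC read by eye as lowest concentration inhibiting visible growth (yellow).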

[2] = test system: Bacillus subtilis (strain BR151); assay type: cell-based; settings: LB medium
In short: as §1

[3] = Proteolytic stability with human serum; assay type: in vitro ADME; settings: 100 μM peptide, human serum diluted with DMEM, 37 °C, up to 24 h
Method: Peptides and peptide dendrimers were prepared as 200 μM stock solution in PBS. 25% Human Serum (diluted with DMEM) was centrifuged at for 15 min at 14000 rpm to remove the lipids and supernatant was collected and incubated for 15 min at 37° C. Proteolysis was initiated upon addition of 50 μL of the test peptide or peptide dendrimer to 50 μL of serum and shaking at 37° C. Final peptide concentration is 100 μM. Reaction mixtures were analyzed after 0, 1, 6, 24 h by addition of ice-cold 10% Trichloroacetic acid (TCA) to precipitate serum proteins. The supernantant was collected for each sample after centrifugation at 14000 rpm for 15 min. and evaporated with a speedvac. After dissolving the solid in 100 μL mQ-H2O they were analyzed by RP-UPLC (flow rate: 1.2 mL/min. gradient: A/D=100/0 to 0/100 in 7.5 min). Conversions of the remaining peptide and peptide dendrimers were calculated by integration of the absorbance at 214 nm by using Chromeleon software.
The peptides were mixed with human serum (previously diluted with DMEM) to a final peptide concentration of 100 μM to determine the stability of AMPDs toward proteases and incubated at 37° C. for 0, 1, 6, or 24 hours. After precipitation of proteins with TCA, the solution was analyzed by analytical RP-UPLC. […] AMPDs MSt-114, MSt-136, MSt-138, MSt-139, MSt-140 and MSt-176 were also checked for their stability. […]

[4] = test system: P. aeruginosa PAO1 bacterial suspension; assay: Detection of peptide in the presence of bacteria; assay type: in vitro ADME, Pseudomonas aeruginosa; settings: 100 μM peptide, P. aeruginosa PAO1 in LB, 37 °C, up to 24 h
Method: Peptides and peptide dendrimers were prepared as 200 μM stock solution in H2O. A colony of bacteria was grown in LB-medium overnight at 37° C. The concentration was quantified by measuring absorbance at 600 nm and diluted to OD600=0.2. Degradation was initiated upon addition of 50 μL of the test peptide or peptide dendrimer to 50 μL of the bacterial suspension and shaking at 37° C. Final peptide concentration is 100 μM and final concentration of bacteria is OD600=0.1 (1×10^8 CFU/mL). Reaction mixtures were analyzed after 0, 1, 6, 9, 24 h by heating up to 95° C. for 5 min. followed by centrifugation for 15 min. at 14000 rpm. 50 μL of the supernantant were collected for each sample and 50 μL A were added giving a concentration of 50 μM. 5 μL of 4-Hydroxybenzoic acid (standard) were added before samples were analyzed by RP-UPLC (flow rate: 1.2 mL/min. gradient: A/D=100/0 to 0/100 in 7.5 min). Conversions of the remaining peptide and peptide dendrimers were calculated by integration of the absorbance at 214 nm by using Chromeleon software.
Bacteria were grown in LB overnight and diluted to OD600=0.2. After addition of the peptides to a concentration of 100 μM the samples were incubated for 0, 1, 6, 9, 24 hours at 37° C. After heating the suspension to 95° C. for 5 min and centrifugation the solution was subjected to UPLC and the remaining peptide was analyzed by using Chromeleon software.

[5] = test system: human red blood cells (hRBC); assay: Haemolysis assay, minimal haemolytic concentration (MHC); assay type: cell-based; settings: hRBC in PBS pH 7.4, 4 h, room temperature
Method: To determine the minimal haemolytic concentration (MHC) stock solutions of 8 mg/mL of the peptide dendrimers in H2O were prepared and 50 μL were diluted serially by ½ in 50 μL PBS (pH 7.4) in 96-well plate (Cornstar or Nunc, polystyrene, untreated). Human red blood cells (hRBC) were obtained by centrifuging 1.5 mL of whole blood from friendly donors at 3000 rpm for 15 minutes. Plasma was discarded and the pellet was re-suspended in a 15 mL falcon tube up to 5 mL of PBS. The washing was repeated three times and the remaining pellet was re-suspended in 10 mL of PBS at a final hRBC concentration of 5%. The hRBC suspension (50 μL) was added to each well and the plate was incubated at room temperature for 4 hours. Minimal haemolytic concentration (MHC) end points were determined by visual inspection of the wells after the incubation period. Controls on each plate included a blank medium control (50 μl PBS+50 μl of hRBC suspension) and a haemolytic activity control (mQ-deionized water 50 μL+50 μL hRBC suspension).
MIC (minimal inhibitory concentration) and MHC (minimal haemolytic concentration, determined on human red blood cells (hRBC)) values are given in μg/mL. When no detectable haemolytic activity was observed, the last measured concentration was used for calculation of the therapeutic index. TI (therapeutic index)=MHC (μg/ml)/geometric mean of MIC (μg/ml). Larger values indicate greater antimicrobial specificity.

[6] = 5(6)-Carboxyfluorescein leakage from lipid vesicles; settings: 10 mM TRIS, 107 mM NaCl, pH 7.4; peptide added at 50 s
Method: (§2) Preparation A thin lipid film was prepared by evaporating a solution of 25 mg Egg PC or Egg PG in 1 mL MeOH/CHCl3 1/1 on a rotary evaporator (rt) and then in vacuo overnight. The resulting film was hydrated with 1 mL buffer (50 mM CF, 10 mM TIRS, 10 mM NaCl, pH 7.4) for 30 min, subjected to freeze-thaw cycles (7×) and extrusion (15×) through a polycarbonate membrane (pore size 100 nm). Extravesicular components were removed by gel filtration (Sephadex G-50) with 10 mM TRIS, 107 mM NaCl, pH 7.4. Final conditions: ˜2.5 mM Egg PC or Egg PG; inside: 50 mM CF, 10 mM TIRS, 10 mM NaCl, pH 7.4; outside: 10 mM TRIS, 107 mM NaCl, pH 7.4.
(§3) Experiment Egg PC or Egg PG stock solutions (37.5 μL) were diluted with a buffer (10 mM TRIS, 107 mM NaCl, pH 7.4) and placed in a thermostated fluorescence cuvette (25° C.) and gently stirred (total volume in the cuvette ˜3000 μL; final lipid concentration ˜31.25 μM). CF efflux was monitored at λem 517 nm (λex 492 nm) as a function of time after addition of 20 μL of peptide dendrimer in buffer (10 mM TRIS, 107 mM NaCl, pH 7.4) with final concentrations of 1, 5, 7.5, 10, 15, 20, 25, 30 μg/mL at t=50 s and 1.2% trition X-100 (30 μL, 0.012% final concentration) at t=300 s. Fluorescence intensities were normalized to fractional emission intensity I(t) using I(t)=(It−I0)/(I∞−I0) where I0 It at peptide dendrimer addition, I∞=It at saturation of lysis.

[7] = as above; settings: 10 mM TRIS, 107 mM NaCl, pH 7.4; peptide added at 50 s; remark: listed apart in the source
Method: as §2, §3
Bacterial membranes contain relatively large amounts of exposed anionic lipids, while the outer leaflet of the membranes of plants and animals is composed mainly of lipids with no net charge. The charge composition of such membranes can be mimicked with phospholipid vesicles. Large unilamellar vesicles (LUVs) composed of the neutral phospholipid with PC (phosphatidyl choline) or with PG (phosphatidyl glycerol) with negative charges were prepared encapsulating 5(6)-carboxyfluorescein (CF). […] The higher the concentration of MSt-112 the higher is the CF leakage (FIG. 6A). […] Overall the active AMPDs interact with the negatively charged membrane and release the CF.

[8] = test system: Pseudomonas aeruginosa (strain PA01); assay type: cell-based; settings: 25 μg/mL; 0, 1, 3, 6, 8, 24 h
Method: Cell viability was assayed against Pseudomonas aeruginosa (strain PA01). A colony of bacteria was grown in LB-medium overnight at 37° C. The concentration was quantified by measuring absorbance at 600 nm and diluted to OD600=0.1 (1×10^8 CFU/mL). The samples were prepared as stock solutions of 1 mg mL^−1 in H2O and diluted in LB to a concentration of 50 μg/mL in a 96-well microtiterplate (TPP, untreated). The sample solutions (50 μL) were mixed with the diluted bacterial suspension with an OD600 nm of 0.001 (50 μL). […] The plates were incubated at 37° C. for 1, 3, 6, 8 and 24 h. Each time point was assayed on a separate plate. For each test, two columns of the plate were kept for sterility control (SC, broth only) and growth control (GC, broth with bacterial inoculums, no antibiotics). After incubation 15 μL of WST-8 working solution (3.31 mg/mL WST-8 (Ochem Incorporation), 0.074 mg/mL PES (phenazine ethosulfate)) was added to each well and cells were incubated at 37° C. until GC had desired value. After the reaction took place, the final absorbance was read at 450 nm. For calculations, the value of the GC was set to 100% cell viability and the value of the negative control (no bacteria, SC) was set to 0% cell viability. […]
In order to determine the killing kinetics of AMPDs the amount of living bacteria was measured as a function of time after incubation with the AMPDs. […]

[9] = test system: Pseudomonas aeruginosa (strain PA01); assay: microbe, parasite or virus in culture; assay type: cell-based; settings: Pseudomonas aeruginosa, PAO1; LB medium, serial 2/3 dilution, 37 °C, 18-24 h; read-out: MIC P. aeruginosa PAO1
In short: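 Broth microdilution MIC against P. aeruginosa PAO1 in LB: peptides serially diluted by ⅔, bacteria added at OD600 0.001 and incubated 18–24 h at 37 °C. MTT added; MIC is the lowest concentration preventing visible growth.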

| Compound | MIC E. coli DH5α [1] | MIC B. subtilis BR151 [2] | Stability in human serum (remaining peptide signal, RP-UPLC) [3] | Stability in bacterial suspension (remaining peptide, UPLC) [4] | MHC (minimal haemolytic concentration) [5] | CF leakage from phosphatidylcholine LUVs [6] | CF leakage from phosphatidylglycerol LUVs [7] | killing kinetics (bacterial survival over 24 hours) [8] | MIC [9] |
| --- | --- | --- | --- | --- | --- | --- | --- | --- | --- |
| CC(C)C[C@H](NC(=O)[C@H](CC(C)C)NC(=O)[C@H](CCCCN)NC(=O)[C@H](C)NC(=O)[C@H](CC(C)C)NC(=O)[C@H](CCCCN)NC(=O)[C@H](CCCCN)NC(=O)[C@H](CC(C)C)NC(=O)[C@H](C)NC(=O)[C@H](CCCCN)NC(=O)[C@H](CCCCN)NC(=O)[C@H](Cc1ccc(O)cc1)NC(=O)[C@@H](N)CCCCN)C(N)=O [RHe-9, (KYKKALKKLAKLL), reference compound] (H-KYKKALKKLAKLL-NH2) | <1 µg/mL | 4 µg/mL (≈ 2.59 µM) | completely disappeared | not detectable after 9 hours | not haemolytic | – | – | – | – |
| NC[C@H]1O[C@H](O[C@H]2[C@H](O)[C@@H](O[C@H]3O[C@H](CO)[C@@H](O)[C@H](N)[C@H]3O)[C@H](N)C[C@@H]2N)[C@H](N)C[C@@H]1O [Tobramycin] | – | – | – | – | – | no CF release | do not show release of CF | kill P. aeruginosa immediately | 0.5 µg/mL (≈ 1.07 µM) |
